Measured values from patent US8748426B2, “Inhibitors of diacylglycerol acyl transferase” (Piramal Enterprises Limited, priority 2009, dated 2014).

Target: T1, hDGAT1 (Homo sapiens, UniProt O75907)
T1 sequence (O75907 1-488): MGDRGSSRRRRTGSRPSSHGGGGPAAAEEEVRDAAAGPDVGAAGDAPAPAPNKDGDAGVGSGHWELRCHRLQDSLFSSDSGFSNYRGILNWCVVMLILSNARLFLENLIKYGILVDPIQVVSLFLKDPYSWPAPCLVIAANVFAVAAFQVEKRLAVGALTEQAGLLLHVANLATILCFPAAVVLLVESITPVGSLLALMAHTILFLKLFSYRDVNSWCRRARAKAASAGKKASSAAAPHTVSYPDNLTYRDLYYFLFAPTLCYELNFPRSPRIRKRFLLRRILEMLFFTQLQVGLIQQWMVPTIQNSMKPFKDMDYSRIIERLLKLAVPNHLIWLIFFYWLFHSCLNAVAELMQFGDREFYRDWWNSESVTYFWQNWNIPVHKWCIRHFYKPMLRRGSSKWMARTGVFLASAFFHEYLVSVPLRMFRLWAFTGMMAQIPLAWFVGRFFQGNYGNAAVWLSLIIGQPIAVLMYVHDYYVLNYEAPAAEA
Test: In-vitro DGAT1 assay (14C oleoyl CoA, hDGAT1 microsomes from Sf9 cells)
Settings: for % Inhibition of hDGAT1: at 1 μM; for inhibition at 1 µM: read-out: % Inhibition of hDGAT1

SMILES	% Inhibition of hDGAT1	inhibition at 1 µM [%]
O=C(Nc1ccc(-c2ccc3c(c2)C(=O)N(C24C[C@@H]5C[C@@H](CC(C(=O)O)(C5)C2)C4)C3)cc1)c1ccc(Cl)cc1 [Example 569, (1r,3s,5R,7S)-3-(6-(4-(4-Chlorobenzamido)phenyl)-1-oxoisoindolin-2-yl)adamantane-1-carboxylic acid]	+ (10-50% Inhibition)	–
CCCCCc1ccc(C(=O)Nc2ccc(-c3ccc4c(c3)C(=O)N(C3(C(=O)O)CCCC3)C4)cc2)cc1 [Example 537, 1-(1-Oxo-6-(4-(4-pentylbenzamido)phenyl)isoindolin-2-yl)cyclopentane carboxylic acid]	–	> 50
CC(C)[C@@H](C(=O)O)N1Cc2ccc(-c3ccc(NC(=O)c4ccc(F)c(F)c4)cc3)cc2C1=O [Example 140, (S)-2-(6-(4-(3,4-Difluorobenzamido)phenyl)-1-oxoisoindolin-2-yl)-3-methyl butanoic acid]	–	> 50
CCCCCc1ccc(C(=O)Nc2ccc(-c3ccc4c(c3)C(=O)N([C@H](C(=O)O)C(C)C)C4)c(C)c2)cc1 [Example 474, (S)-3-Methyl-2-(6-(2-methyl-4-(4-pentylbenzamido)phenyl)-1-oxoisoindolin-2-yl)butanoic acid]	–	> 50
CC(C)C[C@@H](C(=O)O)N1Cc2ccc(-c3ccc(NC(=O)Nc4cccc(C(F)(F)F)c4)cc3)cc2C1=O [Example 352, (S)-4-Methyl-2-(1-oxo-6-(4-(3-(3-(trifluoromethyl)phenyl)ureido)phenyl)isoindolin-2-yl)pentanoic acid]	–	10 to 50
CC(C)[C@@H](C(=O)O)N1Cc2ccc(-c3ccc(NC(=O)c4ccccc4Oc4ccccc4)cc3)cc2C1=O [Example 152, (S)-3-Methyl-2-(1-oxo-6-(4-(2-phenoxybenzamido)phenyl)isoindolin-2-yl)butanoic acid]	–	> 50
Cc1ccc(C(=O)Nc2ccc(-c3ccc4c(c3)C(=O)N(C3(C(=O)O)CCC3)C4)cc2)cc1 [Example 582, 1-(6-(4-(4-Methylbenzamido)phenyl)-1-oxoisoindolin-2-yl)cyclobutane carboxylic acid]	–	> 50
Cc1cc(NC(=O)c2ccc(-c3ccccc3)cc2)ccc1-c1ccc2c(c1)C(=O)N([C@H](C(=O)O)C(C)C)C2 [Example 470, (S)-2-(6-(4-Biphenyl-4-ylcarboxamido-2-methylphenyl)-1-oxoisoindolin-2-yl)-3-methylbutanoic acid]	++ (>50% Inhibition)	–
CC(C)[C@@H](C(=O)O)N1Cc2ccc(-c3ccc(NC(=O)c4nnc(-c5ccccc5)s4)cc3)cc2C1=O [Example 627, (S)-3-Methyl-2-(1-oxo-6-(4-(5-phenyl-1,3,4-thiadiazole-2-carboxamido)phenyl)isoindolin-2-yl)butanoic acid]	–	> 50
CC(C)[C@@H](C(=O)O)N1Cc2ccc(-c3ccc(NC(=O)Nc4ccc(Oc5ccccc5)cc4)cc3)cc2C1=O [Example 50, (S)-3-Methyl-2-(1-oxo-6-(4-(3-(4-phenoxyphenyl)ureido)phenyl)isoindolin-2-yl)butanoic acid]	–	> 50
CC(C)[C@@H](C(=O)O)N1Cc2ccc(-c3ccc(NC(=O)Nc4ccccc4Cl)cc3C(F)(F)F)cc2C1=O [Example 416, (S)-2-(6-(4-(3-(2-Chlorophenyl)ureido)-2-(trifluoromethyl)phenyl)-1-oxoisoindolin-2-yl)-3-methylbutanoic acid]	–	10 to 50
CC(C)[C@@H](C(=O)O)N1Cc2ccc(-c3ccc(NC(=S)Nc4ccc(C#N)cc4)cc3)cc2C1=O [Example 68, (S)-2-(6-(4-(3-(4-Cyanophenyl)thioureido)phenyl)-1-oxoisoindolin-2-yl)-3-methyl butanoic acid]	–	> 50
CC(C)[C@@H](C(=O)O)N1Cc2ccc(-c3ccc(NC(=O)c4cccnc4Cl)cc3)cc2C1=O [Example 209, (S)-2-(6-(4-(2-Chloronicotinamido)phenyl)-1-oxoisoindolin-2-yl)-3-methyl butanoic acid]	–	> 50
